The record followed here is patent US11447466B2, “Substituted indole compounds useful as inhibitors of TLR7/8/9” (BRISTOL-MYERS SQUIBB COMPANY, priority 2017, dated 2022).

Assay type in all cases: cell-based
One assay has as its target T1, human TLR7 (Homo sapiens, UniProt Q9NYK1).
T1 construct: host or cells: HEK-Blue cells
T1 sequence (Q9NYK1 27-1049): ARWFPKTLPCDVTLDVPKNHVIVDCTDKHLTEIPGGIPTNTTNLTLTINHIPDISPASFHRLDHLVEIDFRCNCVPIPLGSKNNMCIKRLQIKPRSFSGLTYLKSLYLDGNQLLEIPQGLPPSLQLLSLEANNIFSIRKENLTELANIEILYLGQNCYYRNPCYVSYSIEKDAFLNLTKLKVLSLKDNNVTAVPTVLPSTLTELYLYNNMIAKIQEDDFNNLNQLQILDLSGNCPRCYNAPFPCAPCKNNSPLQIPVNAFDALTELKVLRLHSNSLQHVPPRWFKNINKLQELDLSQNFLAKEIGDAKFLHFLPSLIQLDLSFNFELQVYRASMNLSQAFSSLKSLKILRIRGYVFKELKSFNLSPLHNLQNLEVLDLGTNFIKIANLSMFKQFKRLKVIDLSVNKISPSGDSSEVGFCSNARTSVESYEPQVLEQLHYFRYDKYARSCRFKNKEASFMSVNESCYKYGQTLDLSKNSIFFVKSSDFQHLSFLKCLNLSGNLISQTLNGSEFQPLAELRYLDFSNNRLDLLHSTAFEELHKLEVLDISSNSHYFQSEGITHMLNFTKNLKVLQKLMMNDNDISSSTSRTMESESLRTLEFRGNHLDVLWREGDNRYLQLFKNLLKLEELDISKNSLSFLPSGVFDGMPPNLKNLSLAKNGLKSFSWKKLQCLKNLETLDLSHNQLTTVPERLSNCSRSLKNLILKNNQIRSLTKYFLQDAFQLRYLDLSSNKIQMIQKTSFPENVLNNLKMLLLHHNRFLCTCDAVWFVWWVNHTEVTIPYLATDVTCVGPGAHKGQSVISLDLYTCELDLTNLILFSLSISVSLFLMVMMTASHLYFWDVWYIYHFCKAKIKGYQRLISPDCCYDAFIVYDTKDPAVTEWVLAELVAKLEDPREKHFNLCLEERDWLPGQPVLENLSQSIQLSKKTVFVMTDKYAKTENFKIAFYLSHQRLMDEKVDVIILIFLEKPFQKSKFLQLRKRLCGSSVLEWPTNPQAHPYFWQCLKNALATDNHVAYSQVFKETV
The assay can be described thus: TLR7 inhibition reporter assay (HEK-Blue SEAP reporter, gardiquimod stimulation). To be noted: HEK-Blue cells overexpressing human TLR7, SEAP reporter, gardiquimod 7.5 μM, 22 hour incubation. In short, it runs like this:
(§1)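 Human TLR7/8/9 HEK-Blue reporter lines; dose range 0.05 nM–50 μM; 30 min RT preincubation; stimulus gardiquimod 7.5 μM / R848 15.9 μM / ODN2006 5 nM respectively; 22 h, 37 °C; SEAP detected colorimetrically.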
A general note: A reporter such as luciferase makes a cellular process visible.

For another assay, the target named is T2, human TLR8 (Homo sapiens, UniProt Q9NR97).
T2 construct: host or cells: HEK-Blue cells
T2 sequence (Q9NR97 27-1041): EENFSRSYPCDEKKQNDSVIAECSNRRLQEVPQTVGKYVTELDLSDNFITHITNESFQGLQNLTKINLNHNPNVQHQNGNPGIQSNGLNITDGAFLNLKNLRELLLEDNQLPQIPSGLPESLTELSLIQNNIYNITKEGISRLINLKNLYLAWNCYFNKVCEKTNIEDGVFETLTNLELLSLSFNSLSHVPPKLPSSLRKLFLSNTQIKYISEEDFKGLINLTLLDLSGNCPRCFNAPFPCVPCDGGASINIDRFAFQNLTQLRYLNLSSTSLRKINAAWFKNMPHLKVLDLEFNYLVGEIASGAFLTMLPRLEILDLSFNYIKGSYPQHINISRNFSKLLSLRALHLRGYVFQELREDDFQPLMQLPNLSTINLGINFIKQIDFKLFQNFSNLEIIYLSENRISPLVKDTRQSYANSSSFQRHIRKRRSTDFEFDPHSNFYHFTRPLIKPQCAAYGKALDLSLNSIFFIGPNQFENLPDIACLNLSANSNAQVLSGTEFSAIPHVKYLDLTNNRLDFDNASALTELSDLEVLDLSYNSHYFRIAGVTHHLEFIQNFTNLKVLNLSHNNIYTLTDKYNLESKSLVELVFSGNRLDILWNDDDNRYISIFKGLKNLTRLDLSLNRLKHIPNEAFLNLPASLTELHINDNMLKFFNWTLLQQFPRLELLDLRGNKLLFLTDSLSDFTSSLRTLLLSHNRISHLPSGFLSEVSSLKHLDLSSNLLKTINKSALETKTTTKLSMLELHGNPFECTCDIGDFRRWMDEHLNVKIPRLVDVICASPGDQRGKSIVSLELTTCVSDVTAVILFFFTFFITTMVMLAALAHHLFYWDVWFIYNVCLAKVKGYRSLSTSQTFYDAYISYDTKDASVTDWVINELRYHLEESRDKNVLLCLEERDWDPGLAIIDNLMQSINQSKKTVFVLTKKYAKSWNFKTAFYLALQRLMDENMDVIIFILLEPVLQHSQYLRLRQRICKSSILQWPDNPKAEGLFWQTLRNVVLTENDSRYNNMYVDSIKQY
The assay can be described thus: TLR8 inhibition reporter assay (HEK-Blue SEAP reporter, R848 stimulation). To be noted: HEK-Blue cells overexpressing human TLR8, SEAP reporter, R848 15.9 μM, 22 hour incubation. In short, it runs like this: as §1

The next assay addresses T3, human TLR9 (Homo sapiens, UniProt Q9NR96).
T3 construct: host or cells: HEK-Blue cells
T3 sequence (Q9NR96 26-1032): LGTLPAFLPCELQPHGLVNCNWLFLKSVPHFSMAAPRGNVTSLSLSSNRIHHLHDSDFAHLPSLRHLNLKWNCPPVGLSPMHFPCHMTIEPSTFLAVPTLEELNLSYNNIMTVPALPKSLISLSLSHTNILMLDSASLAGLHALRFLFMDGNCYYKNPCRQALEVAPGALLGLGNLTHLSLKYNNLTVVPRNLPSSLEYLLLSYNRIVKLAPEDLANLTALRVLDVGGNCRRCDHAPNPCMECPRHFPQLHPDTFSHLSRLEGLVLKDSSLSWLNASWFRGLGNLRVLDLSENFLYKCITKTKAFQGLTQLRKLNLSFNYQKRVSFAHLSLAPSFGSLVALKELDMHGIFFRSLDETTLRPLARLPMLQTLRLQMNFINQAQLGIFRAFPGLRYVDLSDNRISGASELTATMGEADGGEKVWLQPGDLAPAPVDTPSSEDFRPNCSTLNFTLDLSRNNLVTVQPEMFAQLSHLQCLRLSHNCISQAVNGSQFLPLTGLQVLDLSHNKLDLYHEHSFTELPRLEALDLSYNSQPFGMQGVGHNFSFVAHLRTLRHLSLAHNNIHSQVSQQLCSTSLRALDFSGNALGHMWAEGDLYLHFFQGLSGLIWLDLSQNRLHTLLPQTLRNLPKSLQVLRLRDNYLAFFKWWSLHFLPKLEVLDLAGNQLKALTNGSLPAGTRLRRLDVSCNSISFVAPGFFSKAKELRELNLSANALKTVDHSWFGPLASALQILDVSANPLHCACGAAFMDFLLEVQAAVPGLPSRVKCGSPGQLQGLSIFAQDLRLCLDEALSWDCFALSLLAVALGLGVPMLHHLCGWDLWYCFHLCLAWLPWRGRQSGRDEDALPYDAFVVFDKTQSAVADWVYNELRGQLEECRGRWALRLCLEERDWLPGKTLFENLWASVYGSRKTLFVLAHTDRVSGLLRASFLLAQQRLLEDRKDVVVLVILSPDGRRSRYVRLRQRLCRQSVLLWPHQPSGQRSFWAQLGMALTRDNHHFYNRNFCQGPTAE
As to the kind of experiment: TLR9 inhibition reporter assay (HEK-Blue SEAP reporter, ODN2006 stimulation). The following applies: HEK-Blue cells overexpressing human TLR9, SEAP reporter, ODN2006 5 nM, 22 hour incubation. In short, it runs like this: as §1

As for `C=C(C)c1cc(-c2[nH]c3ccc(C4CCNCC4)cc3c2C(C)C)cn(C)c1=O` [Example 51, 5-(3-isopropyl-5-(piperidin-4-yl)-1H-indol-2-yl)-1-methyl-3-(prop-1-en-2-yl)pyridin-2(1H)-one], the concentration for half-maximal inhibition (IC50) (usually the midpoint of a concentration-inhibition curve) at human TLR7 is 10.9 nM; on human TLR8, 30.6 nM; on human TLR9, 2580 nM.

In the case of `COCc1cc(-c2[nH]c3ccc(C4CCN(C(C)C)CC4)cc3c2C(C)C)cn(C)c1=O` [Example 347, 5-(3-isopropyl-5-(1-isopropylpiperidin-4-yl)-1H-indol-2-yl)-3-(methoxymethyl)-1-methylpyridin-2(1H)-one], the figures for the half-inhibitory concentration (IC50) against human TLR7, against human TLR8 and against human TLR9 were 7.2 nM, 28.6 nM and 13600 nM, respectively.

In the case of `Cc1cc(-c2[nH]c3ccc(C4CCN(CC(=O)N5CCC(=O)N5)CC4)cc3c2C(C)C)cn(C)c1=O` [Example 121, 5-(3-isopropyl-5-(1-(2-oxo-2-(3-oxopyrazolidin-1-yl)ethyl)piperidin-4-yl)-1H-indol-2-yl)-1,3-dimethylpyridin-2(1H)-one], the IC50 is 40.7 nM against human TLR7, 102 nM at human TLR8 and at least 50000 nM against human TLR9.

As for `Cc1cc(-c2[nH]c3ccc(C4CCN(C5CCOCC5)CC4)cc3c2C(C)C)nn(C)c1=O` [Example 194, 6-(3-isopropyl-5-(1-(tetrahydro-2H-pyran-4-yl)piperidin-4-yl)-1H-indol-2-yl)-2,4-dimethylpyridazin-3(2H)-one], the IC50 is 10.2 nM on human TLR7, 6.3 nM against human TLR8 and 2980 nM against human TLR9.

As to `CCCN1CCC(c2ccc3[nH]c(-c4cc(-c5ccc(F)nc5)c(=O)n(C)c4)c(C(C)C)c3c2)CC1` [Example 341, 6′-fluoro-5-(3-isopropyl-5-(1-propylpiperidin-4-yl)-1H-indol-2-yl)-1-methyl-[3,3′-bipyridin]-2(1H)-one], the IC50 against human TLR7 is 16.2 nM; against human TLR8 it was 4.3 nM; at human TLR9 it was 714 nM.

With `CC(C)c1c(-c2ccc(=O)n(CC(C)(C)O)c2)[nH]c2ccc(C3CCNCC3)cc12` [Example 48, 1-(2-hydroxy-2-methylpropyl)-5-(3-isopropyl-5-(piperidin-4-yl)-1H-indol-2-yl)pyridin-2(1H)-one], the IC50 is 13900 nM against human TLR7, at least 50000 nM against human TLR8 and 1270 nM against human TLR9.

Consider `Cc1c(-c2[nH]c3ccc(C4CCN(CC5CCOC5)CC4)cc3c2C(C)C)cn(C)c(=O)c1Cl` (stereo not drawn) [Example 255, 3-chloro-5-(3-isopropyl-5-(1-((tetrahydrofuran-3-yl)methyl)piperidin-4-yl)-1H-indol-2-yl)-1,4-dimethylpyridin-2(1H)-one], for which the IC50 against human TLR7 was determined as 4.8 nM; on human TLR8 it was 2.3 nM; at human TLR9, 1820 nM.

In the case of `Cc1c(-c2[nH]c3ccc(C4CCN(C5CCOCC5)CC4)cc3c2C(C)C)cn(C)c(=O)c1Cl` [Example 239, 3-chloro-5-(3-isopropyl-5-(1-(tetrahydro-2H-pyran-4-yl)piperidin-4-yl)-1H-indol-2-yl)-1,4-dimethylpyridin-2(1H)-one], the 50% inhibitory concentration (IC50) is 5.4 nM on human TLR7, 5.3 nM on human TLR8 and 5810 nM on human TLR9.

In the case of `Cc1cc(-c2[nH]c3ccc(C4CCN(CC(=O)N(C)C)CC4)cc3c2C(C)C)cn(CCO)c1=O` [Example 167, 2-(4-(2-(1-(2-hydroxyethyl)-5-methyl-6-oxo-1,6-dihydropyridin-3-yl)-3-isopropyl-1H-indol-5-yl)piperidin-1-yl)-N,N-dimethylacetamide], the values for the half-inhibitory concentration (IC50) at human TLR7, against human TLR8 and against human TLR9 were 61.7 nM, 15.6 nM and 49300 nM, respectively.

Regarding `CC(C)c1c(-c2cc(-c3cncnc3)c(=O)n(C)c2)[nH]c2ccc(C3CCN(CC4CCOC4)CC3)c(F)c12` (stereo not drawn) [Example 259, 5-(4-fluoro-3-isopropyl-5-(1-((tetrahydrofuran-3-yl)methyl)piperidin-4-yl)-1H-indol-2-yl)-1-methyl-3-(pyrimidin-5-yl)pyridin-2(1H)-one], the IC50 at human TLR7 turned out to be 6.1 nM; against human TLR8 it was 0.6 nM; at human TLR9, 983 nM.

As for `Cc1cc(-c2[nH]c3ccc(C4CCN(Cc5ccc(OC(F)(F)F)cc5)CC4)cc3c2C(C)C)cn(C)c1=O` [Example 77, 5-(3-isopropyl-5-(1-(4-(trifluoromethoxy)benzyl)piperidin-4-yl)-1H-indol-2-yl)-1,3-dimethylpyridin-2(1H)-one], the results for the IC50 at human TLR7, at human TLR8 and against human TLR9 were 123 nM, 50.6 nM and 7850 nM, respectively.

In the case of `CCCN1CCC(c2ccc3[nH]c(-c4cc(C)c(=O)n(C)c4)c(C(C)C)c3c2)CC1` [Example 224, 5-(3-isopropyl-5-(1-propylpiperidin-4-yl)-1H-indol-2-yl)-1,3-dimethylpyridin-2(1H)-one], the IC50 on human TLR7 is 1.8 nM; at human TLR8 it was 4.5 nM; at human TLR9, 14000 nM.
